Data reported in patent US9533961B2, “Molecules having certain pesticidal utilities, and intermediates, compositions, and processes related thereto” (priority 2014, dated 2017).

Experiments:
Format in all cases: in vivo
[1] = test system: Cabbage Looper (Trichoplusia ni, TRIPNI) ("CL"); test: Bioassay on Cabbage Looper (CL), 128-well diet tray assay; conditions: 168 h, read-out: CL % Control (or Mortality) rating
Procedure: (§1) Certain molecules disclosed in this document were tested against BAW and CEW using procedures described in the following examples. In the reporting of the results, the “BAW & CL Rating Table” was used (See Table Section).
Bioassays on CL were conducted using a 128-well diet tray assay. one to five second instar CL larvae were placed in each well (3 mL) of the diet tray that had been previously filled with 1 mL of artificial diet to which 50 μg/cm^2 of the test compound (dissolved in 50 μL of 90:10 acetone-water mixture) had been applied (to each of eight wells) and then allowed to dry. Trays were covered with a clear self-adhesive cover and held at 25° C., 14:10 light-dark for five to seven days. Percent mortality was recorded for the larvae in each well; activity in the eight wells was then averaged. The results are indicated in the table entitled “Table ABC: Biological Results” (See Table Section).

[2] = test system: Yellow Fever Mosquito (Aedes aegypti, AEDSAE) ("YFM"); test: Bioassay on Yellow Fever Mosquito (YFM), 96-well plate larval assay; conditions: about 1 day-old larvae, from 4000 ppm master plate, scored on mortality after 3 days
Procedure: Certain molecules disclosed in this document were tested against YFM using procedures described in the following paragraph. In the reporting of the results, the “YFM Rating Table” was used (See Table Section).
Master plates containing 400 μg of a molecule dissolved in 100 μL of dimethyl sulfoxide (DMSO) (equivalent to a 4000 ppm solution) are used. A master plate of assembled molecules contains 15 μL per well. To this plate, 135 μL of a 90:10 water:acetone mixture is added to each well. A robot (Biomek® NXP Laboratory Automation Workstation) is programmed to dispense 15 μL aspirations from the master plate into an empty 96-well shallow plate (“daughter” plate). There are 6 reps (“daughter” plates) created per master. The created daughter plates are then immediately infested with YFM larvae.
The day before plates are to be treated, mosquito eggs are placed in Millipore water containing liver powder to begin hatching (4 g. into 400 mL). After the daughter plates are created using the robot, they are infested with 220 μL of the liver powder/larval mosquito mixture (about 1 day-old larvae). After plates are infested with mosquito larvae, a non-evaporative lid is used to cover the plate to reduce drying. Plates are held at room temperature for 3 days prior to grading. After 3 days, each well is observed and scored based on mortality.

[3] = test system: Beet Armyworm (Spodoptera exigua, LAPHEG) ("BAW"); test: Bioassay on Beet Armyworm (BAW), 128-well diet tray assay; conditions: 168 h, 50 μg/cm^2 on artificial diet, second instar larvae, five to seven days, 25° C., average of eight wells, read-out: BAW % Control (or Mortality) rating
Procedure: as §1
Bioassays on BAW were conducted using a 128-well diet tray assay. one to five second instar BAW larvae were placed in each well (3 mL) of the diet tray that had been previously filled with 1 mL of artificial diet to which 50 μg/cm^2 of the test compound (dissolved in 50 μL of 90:10 acetone-water mixture) had been applied (to each of eight wells) and then allowed to dry. Trays were covered with a clear self-adhesive cover and held at 25° C., 14:10 light-dark for five to seven days. Percent mortality was recorded for the larvae in each well; activity in the eight wells was then averaged. The results are indicated in the table entitled “Table ABC: Biological Results” (See Table Section).

SMILES: CC(C)COc1cccc(C(=O)Nc2ccc(-c3ncn(-c4ccc(OC(F)(F)F)cc4)n3)cc2)c1 [F19, 3-Isobutoxy-N-(4-(1-(4-(trifluoromethoxy)phenyl)-1H-1,2,4-triazol-3-yl)phenyl)benzamide]
- mortality at 50 µg/cm2 [1]: 50 to 100%
- YFM % Control (or Mortality) rating [2]: D (No activity noticed in this bioassay)
- mortality at 50 µg/cm2 [3]: 0%

SMILES: CC(C)c1cccc(C(=O)NCc2ccc(-c3ncn(-c4ccc(OC(F)(F)F)cc4)n3)cc2)c1 [F28, 3-Isopropyl-N-(4-(1-(4-(trifluoromethoxy)phenyl)-1H-1,2,4-triazol-3-yl)benzyl)benzamide]
- mortality at 50 µg/cm2 [1]: 0%
- YFM % Control (or Mortality) rating [2]: D (No activity noticed in this bioassay)
- mortality at 50 µg/cm2 [3]: 50 to 100%

SMILES: O=C(Nc1ccc(-c2ncn(-c3ccc(OC(F)(F)F)cc3)n2)cc1)c1ccc2c(c1)OC(F)(F)O2 [F22, 2,2-Difluoro-N-(4-(1-(4-(trifluoromethoxy)phenyl)-1H-1,2,4-triazol-3-yl)phenyl)benzo[d][1,3]dioxole-5-carboxamide]
- mortality at 50 µg/cm2 [1]: 0%
- mortality at 50 µg/cm2 [3]: 0%

SMILES: Cc1ccc(Cl)cc1-c1ccccc1C(=O)NCc1ccc(-c2ncn(-c3ccc(OC(F)(F)F)cc3)n2)cc1 [F34, 5′-Chloro-2′-methyl-N-(4-(1-(4-(trifluoromethoxy)phenyl)-1H-1,2,4-triazol-3-yl)benzyl)biphenyl-2-carboxamide]
- mortality at 50 µg/cm2 [1]: 50 to 100%
- YFM % Control (or Mortality) rating [2]: D (No activity noticed in this bioassay)
- mortality at 50 µg/cm2 [3]: 0%

SMILES: Cc1ccc(C(C)C)c(C(=O)NCc2ccc(-c3ncn(-c4ccc(OC(F)(F)F)cc4)n3)cc2)c1 [F39, 2-Isopropyl-5-methyl-N-(4-(1-(4-(trifluoromethoxy)phenyl)-1H-1,2,4-triazol-3-yl)benzyl)benzamide]
- mortality at 50 µg/cm2 [1]: 0%
- YFM % Control (or Mortality) rating [2]: D (No activity noticed in this bioassay)
- mortality at 50 µg/cm2 [3]: 0%

SMILES: O=C(Nc1ccc(-c2ncn(-c3ccc(OC(F)(F)C(F)(F)F)cc3)n2)cc1)c1ccccc1Oc1ccccc1 [F8, N-(4-(1-(4-(Perfluoroethoxy)phenyl)-1H-1,2,4-triazol-3-yl)phenyl)-2-phenoxybenzamide]
- mortality at 50 µg/cm2 [1]: 0%
- YFM % Control (or Mortality) rating [2]: D (No activity noticed in this bioassay)
- mortality at 50 µg/cm2 [3]: 0%

SMILES: O=C(Nc1ccc(-c2ncn(-c3ccc(OC(F)(F)F)cc3)n2)cc1)c1ccc(-c2ccccc2)cc1 [F25, N-(4-(1-(4-(trifluoromethoxy)phenyl)-1H-1,2,4-triazol-3-yl)phenyl)-[1,1′-biphenyl]-4-carboxamide]
- mortality at 50 µg/cm2 [1]: 0%
- YFM % Control (or Mortality) rating [2]: D (No activity noticed in this bioassay)
- mortality at 50 µg/cm2 [3]: 0%

SMILES: CC(C)c1cccc(C(=O)Nc2ccc(-c3ncn(-c4ccc(OC(F)(F)F)cc4)n3)cc2)c1 [F15, 3-Isopropyl-N-(4-(1-(4-(trifluoromethoxy)phenyl)-1H-1,2,4-triazol-3-yl)phenyl)benzamide]
- mortality at 50 µg/cm2 [1]: 50 to 100%
- YFM % Control (or Mortality) rating [2]: D (No activity noticed in this bioassay)
- mortality at 50 µg/cm2 [3]: 0%

SMILES: O=C(Nc1ccc(-c2ncn(-c3ccc(OC(F)(F)F)cc3)n2)cc1)c1cccc2c1OC(F)(F)O2 [F21, 2,2-Difluoro-N-(4-(1-(4-(trifluoromethoxy)phenyl)-1H-1,2,4-triazol-3-yl)phenyl)benzo[d][1,3]dioxole-4-carboxamide]
- mortality at 50 µg/cm2 [1]: 50 to 100%
- mortality at 50 µg/cm2 [3]: 50 to 100%

SMILES: Cc1cccc(-c2ccccc2C(=O)NCc2ccc(-c3ncn(-c4ccc(OC(F)(F)F)cc4)n3)cc2)c1C [F36, 2′,3′-Dimethyl-N-(4-(1-(4-(trifluoromethoxy)phenyl)-1H-1,2,4-triazol-3-yl)benzyl)biphenyl-2-carboxamide]
- mortality at 50 µg/cm2 [1]: 50 to 100%
- YFM % Control (or Mortality) rating [2]: A (80-100)
- mortality at 50 µg/cm2 [3]: 0 to 50%

SMILES: CCOc1ccccc1Oc1ccccc1C(=O)Nc1ccc(-c2ncn(-c3ccc(OC(F)(F)C(F)(F)F)cc3)n2)cc1 [F18, 2-(2-Ethoxyphenoxy)-N-(4-(1-(4-(perfluoroethoxy)phenyl)-1H-1,2,4-triazol-3-yl)phenyl)benzamide]
- mortality at 50 µg/cm2 [1]: 0%
- YFM % Control (or Mortality) rating [2]: D (No activity noticed in this bioassay)
- mortality at 50 µg/cm2 [3]: 0%

SMILES: Cc1ccc(C(=O)NCc2ccc(-c3ncn(-c4ccc(OC(F)(F)F)cc4)n3)cc2)c(C)c1 [F29, 2,4-Dimethyl-N-(4-(1-(4-(trifluoromethoxy)phenyl)-1H-1,2,4-triazol-3-yl)benzyl)benzamide]
- mortality at 50 µg/cm2 [1]: 0%
- YFM % Control (or Mortality) rating [2]: D (No activity noticed in this bioassay)
- mortality at 50 µg/cm2 [3]: 0%

SMILES: CC(C)c1cccc(C(=O)Nc2ccc(-c3ncn(-c4ccc(OC(F)(F)C(F)(F)F)cc4)n3)cc2)c1 [F16, 3-Isopropyl-N-(4-(1-(4-(perfluoroethoxy)phenyl)-1H-1,2,4-triazol-3-yl)phenyl)benzamide]
- mortality at 50 µg/cm2 [1]: 50 to 100%
- YFM % Control (or Mortality) rating [2]: D (No activity noticed in this bioassay)
- mortality at 50 µg/cm2 [3]: 0%

SMILES: COc1cccc(C(=O)Nc2ccc(-c3ncn(-c4ccc(OC(F)(F)F)cc4)n3)cc2)c1 [F13, 3-Methoxy-N-(4-(1-(4-(trifluoromethoxy)phenyl)-1H-1,2,4-triazol-3-yl)phenyl)benzamide]
- mortality at 50 µg/cm2 [1]: 50 to 100%
- YFM % Control (or Mortality) rating [2]: B (More than 0 - Less than 80)
- mortality at 50 µg/cm2 [3]: 50 to 100%

SMILES: COc1ccccc1C(=O)Nc1ccc(-c2ncn(-c3ccc(OC(F)(F)F)cc3)n2)cc1 [F11, 2-Methoxy-N-(4-(1-(4-(trifluoromethoxy)phenyl)-1H-1,2,4-triazol-3-yl)phenyl)benzamide]
- mortality at 50 µg/cm2 [1]: 0%
- YFM % Control (or Mortality) rating [2]: D (No activity noticed in this bioassay)
- mortality at 50 µg/cm2 [3]: 50 to 100%

SMILES: Cc1cccc(C)c1-c1ccccc1C(=O)NCc1ccc(-c2ncn(-c3ccc(OC(F)(F)F)cc3)n2)cc1 [F37, 2′,6′-Dimethyl-N-(4-(1-(4-(trifluoromethoxy)phenyl)-1H-1,2,4-triazol-3-yl)benzyl)biphenyl-2-carboxamide]
- mortality at 50 µg/cm2 [1]: 50 to 100%
- YFM % Control (or Mortality) rating [2]: A (80-100)
- mortality at 50 µg/cm2 [3]: 0 to 50%

SMILES: Cc1ccccc1-c1ccccc1C(=O)NCc1ccc(-c2ncn(-c3ccc(OC(F)(F)F)cc3)n2)cc1 [F30, 2′-Methyl-N-(4-(1-(4-(trifluoromethoxy)phenyl)-1H-1,2,4-triazol-3-yl)benzyl)biphenyl-2-carboxamide]
- mortality at 50 µg/cm2 [1]: 50 to 100%
- YFM % Control (or Mortality) rating [2]: B (More than 0 - Less than 80)
- mortality at 50 µg/cm2 [3]: 0 to 50%

SMILES: O=C(Nc1ccc(-c2ncn(-c3ccc(OC(F)(F)F)cc3)n2)cc1)c1ccccc1COC1CCOCC1 [F23, 2-(((Tetrahydro-2H-pyran-4-yl)oxy)methyl)-N-(4-(1-(4-(trifluoromethoxy)phenyl)-1H-1,2,4-triazol-3-yl)phenyl)benzamide]
- mortality at 50 µg/cm2 [1]: 50 to 100%
- YFM % Control (or Mortality) rating [2]: D (No activity noticed in this bioassay)
- mortality at 50 µg/cm2 [3]: 50 to 100%

SMILES: O=C(Nc1ccc(-c2ncn(-c3ccc(OC(F)(F)C(F)(F)F)cc3)n2)cc1)c1ccc(Oc2ccccc2)cc1 [F10, N-(4-(1-(4-(perfluoroethoxy)phenyl)-1H-1,2,4-triazol-3-yl)phenyl)-4-phenoxybenzamide]
- mortality at 50 µg/cm2 [1]: 0%
- YFM % Control (or Mortality) rating [2]: D (No activity noticed in this bioassay)
- mortality at 50 µg/cm2 [3]: 0%

SMILES: CC(C)c1cccc(C(=O)Nc2ccc(-c3ncn(-c4ccc(C(F)(F)F)cc4)n3)cc2)c1 [F24, 3-Isopropyl-N-(4-(1-(4-(trifluoromethyl)phenyl)-1H-1,2,4-triazol-3-yl)phenyl)benzamide]
- mortality at 50 µg/cm2 [1]: 50 to 100%
- YFM % Control (or Mortality) rating [2]: D (No activity noticed in this bioassay)
- mortality at 50 µg/cm2 [3]: 0%

SMILES: O=C(Nc1ccc(-c2ncn(-c3ccc(OC(F)(F)F)cc3)n2)cc1)c1cccc(COCC(F)(F)C(F)F)c1 [F20, 3-((2,2,3,3-Tetrafluoropropoxy)methyl)-N-(4-(1-(4-(trifluoromethoxy)phenyl)-1H-1,2,4-triazol-3-yl)phenyl)benzamide]
- mortality at 50 µg/cm2 [1]: 0%
- YFM % Control (or Mortality) rating [2]: B (More than 0 - Less than 80)
- mortality at 50 µg/cm2 [3]: 0%
